Data set [1] has as its system axenic amastigotes of L. amazonensis (strain MHOM/BR/76/LTB-012). In words: microbe, parasite or virus in culture. The settings on record: Leishmania amazonensis.
Data set [2] can be described thus: Toxicity to peritoneal macrophages (Trypan Blue count). It counts as cell-based, BALB/C mouse. The settings on record: BALB/C, mouse.
Data set [3] has as its system M. tuberculosis H37Rv. The data set can be described thus: Conventional aerobic (MABA) culture assay, luminescence MIC. In kind it is cell-based, Mycobacterium tuberculosis. The settings on record: for MIC: Mycobacterium tuberculosis, 168 h, aerobic, 7 days, H37Rv; for Selectivity Index H37Rv: VERO vs MABA MIC. For orientation: Resazurin is reduced to fluorescent resorufin, in cell work by metabolically active cells.

The subject of a further data set is VERO cells. The data set can be described thus: Cell growth inhibition bioassay (sulforhodamine B). It counts as cell-based, African Green Monkey. The settings on record: Chlorocebus sabaeus, Vero; 48 h, SRB; read-out: GI50 in indicated cell line: VERO. In a few lines:
(§1)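 Cells were exposed to compound alongside matched solvent controls, then stained with sulforhodamine B. Percent growth inhibition was calculated from dye absorbance against the control.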

The test system of data set [4] is axenic amastigotes of L. amazonensis (strain MHOM/BR/76/LTB-012). The settings on record: Table 8b.
Data set [5] in a line: Cytotoxicity on VERO cells (MTT), anti-T. cruzi study. The settings on record: African green monkey, VERO cells, Cytotoxicity VERO Lab B, Lab B.
For a further data set, the system named is 3T3 cells. The data set can be described thus: Cell growth inhibition bioassay (sulforhodamine B). It counts as cell-based, mouse. The settings on record: Mus musculus, NIH3T3; 48 h, SRB; read-out: GI50 in indicated cell line: 3T3. In a few lines:
as §1

Another data set deals with MCF-7 cells. In words: Cell growth inhibition bioassay (sulforhodamine B). In kind it is cell-based, human. The settings on record: Homo sapiens, MCF7; 48 h, SRB; read-out: GI50 in indicated cell line: MCF-7. In a few lines: (§2)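 SRB colorimetric read-out; % growth inhibition vs solvent control. Human lines: MCF-7 (breast adenocarcinoma), DU145 (prostate carcinoma), PC3 (prostate adenocarcinoma), H460 (large cell lung cancer).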

For a further data set, the system named is DU145 cells. In words: Cell growth inhibition bioassay (sulforhodamine B). It counts as cell-based, human. The settings on record: Homo sapiens, DU-145; 48 h, SRB; read-out: GI50 in indicated cell line: DU145. In a few lines:
as §2

Another data set has as its system K562 cells. The data set can be described thus: Cell growth inhibition bioassay (sulforhodamine B). It counts as cell-based, human. The settings on record: Homo sapiens, K562; 48 h, SRB; read-out: GI50 in indicated cell line: K562. In a few lines: as §1
The test system of the next data set is M-14 cells. In words: Cell growth inhibition bioassay (sulforhodamine B). In kind it is cell-based, human. The settings on record: Homo sapiens, M14; 48 h, SRB; read-out: GI50 in indicated cell line: M-14. In a few lines:
as §1

For a further data set, the system named is HT-29 cells. The data set can be described thus: Cell growth inhibition bioassay (sulforhodamine B). In kind it is cell-based, human. The settings on record: Homo sapiens, HT-29; 48 h, SRB; read-out: GI50 in indicated cell line: HT-29. In a few lines:
as §1

In the next data set the test system is H460 cells. In words: Cell growth inhibition bioassay (sulforhodamine B). It counts as cell-based, human. The settings on record: Homo sapiens, NCI-H460; 48 h, SRB; read-out: GI50 in indicated cell line: H460. In a few lines:
as §1

Data set [6] relates to non-replicating persistence Mycobacterium tuberculosis (NRP-TB). The data set can be described thus: Low oxygen recovery assay (LORA). It counts as cell-based. The settings on record: value in brackets; for MIC: Mycobacterium tuberculosis, anaerobic 10 days, 28 hour recovery; for Selectivity Index LORA: VERO vs LORA MIC.
Data set [7] in a line: Cytotoxicity VERO cell (Table 6). The settings on record: African green monkey, VERO cells.
For data set [8], the system named is Trypanosoma cruzi (Tulahuen C4). The data set can be described thus: In vitro anti-T. cruzi activity (β-galactosidase CPRG colorimetric assay in VERO monolayer). The settings on record: for Selectivity Index Lab B: IC50, VERO/IC50, T. cruzi. In kind it is cell-based.
A further data set deals with M. tuberculosis MDR. In words: Anti-tuberculosis bioassay (tetrazolium microplate MIC). In kind it is cell-based. The settings on record: Mycobacterium tuberculosis, read-out: Mycobacterium MIC MDR.
The test system of data set [9] is M. tuberculosis H37Rv. The data set is described as above. It counts as cell-based. The settings on record: Mycobacterium tuberculosis, read-out: Mycobacterium MIC H37Rv, Table 5.
[10] abbreviates: Trypanosoma cruzi, TULAHUEN, Vero, Lab A, read-out: T. cruzi IC50 Lab A.
Where [11] appears, read: Trypanosoma cruzi, TULAHUEN, Vero, Lab B, read-out: T. cruzi IC50 Lab B.

≈ marks a conversion by molar mass, not a printed value. Read-outs that look alike come from different tables or passages of the source.

Broadly, the IC50 is the midpoint of a concentration-inhibition curve. Broadly, the MIC is the lowest concentration found to suppress growth. The term GI50 denotes the concentration that inhibits growth by half. Regarding `C(=N/Nc1ncnc2sc3c(c12)CCCC3)/c1ccco1` [II-18], the IC50 in data set [1] (read-out: L. amazonensis IC50) is 1.2 µM; in data set [5] it was 3 µg/mL (≈ 10.1 µM); in data set [7] it was 12.3 µg/mL (≈ 41.2 µM); in data set [8] (setting [10]), 1.2 µg/mL (≈ 4.02 µM); in data set [8] (setting [11]) it was 4.8 µg/mL (≈ 16.1 µM). In data set [2] (Cytotoxicity Macrophages IC50), this molecule registered an IC50 at 48 h of 0.7 µM. The MIC with M. tuberculosis H37Rv [3] was determined as 11.9 µg/mL (≈ 39.9 µM); in data set [6] it was 2.9 µg/mL (≈ 9.72 µM). Further, the “Selectivity Index H37Rv” value in the data set with M. tuberculosis H37Rv [3] was 1.0. Further, the GI50 with VERO cells came out at 2.6 µg/mL (≈ 8.71 µM); in the data set on 3T3 cells it was 2.3 µg/mL (≈ 7.71 µM); in the data set on MCF-7 cells, 0.3 µg/mL (≈ 1.01 µM); in the data set on DU145 cells, 4.7 µg/mL (≈ 15.8 µM); with K562 cells it was 1.2 µg/mL (≈ 4.02 µM); in the data set with M-14 cells it was 3.3 µg/mL (≈ 11.1 µM). Further, the GI50 in the data set on HT-29 cells worked out at 2.5 µg/mL (≈ 8.38 µM); with H460 cells, 2.1 µg/mL (≈ 7.04 µM). Further, the “Selectivity Index” value in data set [4] is given as 0.6. For the same molecule, the “Selectivity Index LORA” value in data set [6] came to 4.3. Besides, the “Selectivity Index Lab B” value in data set [8] (Lab B) is given as 0.6.
For `O=[N+]([O-])c1ccc(/C=N\Nc2ncnc3sc4c(c23)CCCC4)cc1` [II-22], the IC50 in data set [1] (read-out: IC50 Cytotoxicity Against Amastigotes) came to 33.8 µM; in [1] (read-out: L. amazonensis IC50), 13.6 µM. The IC50 at 48 h is 70.4 µM in data set [2] (Cytotoxicity Macrophages IC50) and above 10 µM in data set [2] (IC50 Cytotoxicity Against Macrophages). Further, the MIC in the data set on M. tuberculosis H37Rv [3] was above 100 µg/mL; with M. tuberculosis MDR, above 25 µg/mL; in the data set with M. tuberculosis H37Rv [9], above 25 µg/mL. The GI50 in the data set on VERO cells, in the data set with 3T3 cells, in the data set with MCF-7 cells, in the data set on DU145 cells, in the data set on K562 cells and with M-14 cells was above 62.5 µg/mL each time. For the same molecule, the GI50 in the data set on HT-29 cells and with H460 cells was above 62.5 µg/mL throughout. The “Selectivity Index” value in [4] turned out to be 5.2. Besides, the inhibition at 10 µg/mL in data set [8] (Trypanosoma cruzi, TULAHUEN, Vero, 120 h, 10 μg/mL of each compound, 120 hours, read-out: T. cruzi Inhib. (%)) came out at 11.6%.
For the molecule `FC(F)(F)c1ccc(/C=N\Nc2ncnc3sc4c(c23)CCCC4)cc1` [II-24], the IC50 worked out at 0.7 µM in data set [1] (read-out: L. amazonensis IC50), 3 µg/mL (≈ 7.97 µM) in data set [5], 33.5 µg/mL (≈ 89 µM) in data set [7] and 4 µg/mL (≈ 10.6 µM) in [8] (setting [11]). Further, the IC50 at 48 h in data set [2] (Cytotoxicity Macrophages IC50) was 3.1 µM. Moreover, the MIC with M. tuberculosis H37Rv [3] came to 6.1 µg/mL (≈ 16.2 µM); in data set [6], 6 µg/mL (≈ 15.9 µM). Also, the “Selectivity Index H37Rv” value in the data set with M. tuberculosis H37Rv [3] is listed as 5.5 (5.5). Moreover, the GI50 was 5.4 µg/mL (≈ 14.3 µM) in the data set on VERO cells; 4 µg/mL (≈ 10.6 µM) with 3T3 cells; 2 µg/mL (≈ 5.31 µM) with MCF-7 cells; 5.6 µg/mL (≈ 14.9 µM) in the data set with DU145 cells; 2.5 µg/mL (≈ 6.64 µM) with K562 cells; 6.4 µg/mL (≈ 17 µM) with M-14 cells. Also, the GI50 in the data set with HT-29 cells came to 2.6 µg/mL (≈ 6.91 µM); in the data set with H460 cells, 5.8 µg/mL (≈ 15.4 µM). The “Selectivity Index” value in [4] was 4.1. Further, the “Selectivity Index LORA” value in data set [6] is on record as 5.5 (5.5). Besides, the “Selectivity Index Lab B” value in data set [8] (Lab B) is recorded as 0.8.
Regarding `C/C(=N/Nc1ncnc2sc3c(c12)CCCC3)c1ccccc1` [II-47], the IC50 in data set [1] (read-out: L. amazonensis IC50) was determined as 9.2 µM; in data set [5] it was 4 µg/mL (≈ 12.4 µM); in data set [7] it was 32.3 µg/mL (≈ 100 µM); in data set [8] (setting [10]) it was 1.3 µg/mL (≈ 4.03 µM); in data set [8] (setting [11]) it was 4.4 µg/mL (≈ 13.6 µM). Moreover, the midpoint of inhibition in data set [2] (Cytotoxicity Macrophages IC50), the IC50 at 48 h, lay at 51.3 µM. Also, the MIC with M. tuberculosis H37Rv [3] is 23.4 µg/mL (≈ 72.6 µM); in [6] it was 2.8 µg/mL (≈ 8.68 µM). Moreover, the “Selectivity Index H37Rv” value in the data set on M. tuberculosis H37Rv [3] stood at 1.4. Moreover, the GI50 in the data set with VERO cells turned out to be 9.3 µg/mL (≈ 28.8 µM); with 3T3 cells, 1.7 µg/mL (≈ 5.27 µM); with MCF-7 cells, 5.3 µg/mL (≈ 16.4 µM); in the data set on DU145 cells, 5.2 µg/mL (≈ 16.1 µM); in the data set on K562 cells it was 3.5 µg/mL (≈ 10.9 µM); with M-14 cells it was 6.4 µg/mL (≈ 19.8 µM). Also, the GI50 is 7.1 µg/mL (≈ 22 µM) in the data set with HT-29 cells and 5.1 µg/mL (≈ 15.8 µM) in the data set with H460 cells. Further, the “Selectivity Index” value in data set [4] amounted to 5.6. Further, the “Selectivity Index LORA” value in data set [6] came to 11.5. In data set [8] (Lab B), the “Selectivity Index Lab B” value was determined as 0.9.

For the origin of these results see patent US9061984B2 (University of Louisville Research Foundation, Inc., priority 2008, dated 2015).
